The record followed here is publication PMC9583322, “Vicinal Diaryl-Substituted Isoxazole and Pyrazole Derivatives with In Vitro Growth Inhibitory and In Vivo Antitumor Activity” (ACS Omega, 2022).

The test system of data set [1] is plasma protein. Put plainly: Plasma protein binding. In kind it is in vitro ADME. How it is done:
(§1) All chemicals were purchased from different suppliers such as Sigma-Aldrich Chemicals (Sigma-Aldrich Corp., St. Louis, MO), Merck Chemicals (Merck KGaA, Darmstadt, Germany), and ABCR (abcr GmbH, Karlsruhe, Germany). THF was dried from benzophenone-sodium. ^1H and ^13C NMR spectra were recorded in CDCl3 or DMSO-d6 on a Varian Mercury 400 MHz spectrometer using tetramethylsilane as the internal standard. Coupling constants were reported as Hertz and all chemical shifts were recorded as δ (ppm). High-resolution mass spectra data (HRMS) were collected using Waters LCT Premier XE Mass Spectrometer operating in ESI(+) or ESI(−) method, also coupled to an AQUITY Ultra Performance Liquid Chromatography system (Waters Corporation) using a UV detector monitoring at 254 nm. Purity for all final compounds was >95%, according to the UPLC-MS method using a water/MeCN solvent gradient containing 0.1% formic acid (1%/90%); flow rate: 0.3 mL/min, column: Aquity BEH C18 column (2.1 × 100 mm^2, 1.7 mm). All microwave irradiation reactions were carried out in a Biotage Initiator + microwave apparatus with Biotage sealed microwave vials. […] Melting points of the compounds were determined using the SMP50 automated melting point apparatus (Stuart, Staffordshire, ST15 OSA, U.K.). […]

The nature of data set [2]: Mouse PK, IV and PO. In kind it is in vivo. How it is done: 1000 Mean Mice PK plasma concentrations after
Figure S2. Plasma concentrations vs. time profile of 85 after single dose IV (1 mg/kg) and PO
(10 mg/kg) administrations in male CD-1 mice. The PK study was done at Syngene
International, Ltd., India. […]

Data set [3] can be described thus: logD7.4. The conditions noted are these: pH 7.4. The format is physicochemical. How it is done:
as §1

The nature of data set [4]: Solubility at the physiological pH. In kind it is physicochemical. How it is done: as §1
A short description of data set [5]: Metabolic stability in human microsomes. The format is in vitro ADME. Particulars: after 45 min incubation. As to the method: as §1
Data set [6] concerns Huh7, Mahlavu and MCF7. Put plainly: SRB cytotoxicity, summary for all three cell lines. Particulars: Homo sapiens; one value or range for Huh7, Mahlavu and MCF7 together; read-out: IC50 against all three cell lines. The format is cell-based. How it is done:
Mahlavu, FOCUS, SNU475 (1000 cell/well in 150 μL/well); Huh7, MCF7 (2500 cell/well in 150 μL/well); HepG2, Hep3B, SKBR3 (3000 cell/well in 150 μL/well); PLC-PRF-5, Hep40 (5000 cell/well in 150 μL/well); MDA-MB-231, MDA-MB-468, MCF10A (6000 cell/well in 150 μL/well); and ZR-75 (7500 cell/well in 150 μL/well) were cultured in 96-well plates and were inoculated in an incubator for 24 hours. The compounds were dissolved in dimethyl sulfoxide (DMSO) (Sigma, St Louis, MO) as a 20 mM stock solution. The treatment of cells with the compounds was done in a concentration range starting from 40 to 2.5 μM. The compounds which were below 2.5 μM were tested in a concentration range from 2.5 to 0.15 μM. End of the 72h compound treatment, the cells were fixed using 10% (v/v) trichloroacetic acid (MERCK) for an hour and washed with ddH2O, and left for air-drying. The fixed plates were stained with 50 μL of sulforhodamine B (SRB) solution (Sigma) at RT for 10 min. To remove unbound SRB dye, acetic acid was used to wash cells three times and left for drying. The protein-bound SRB was solubilized with 10 mM Tris-base (Sigma) and their absorbance was measured with a 96-well plate reader at 515 nm wavelength (ELx800, Biotek). The IC50 values of compounds were calculated in comparison with control group DMSO. Data with R^2 values larger than 0.9 are considered significant.

The target of data set [7] is CYP2C9 (Homo sapiens, UniProt P11712). Briefly: CYP inhibition. The conditions noted are these: read-out: Inhibition of human CYP 2C9. The format is in vitro ADME. How it is done:
(§2) All chemicals were purchased from different suppliers such as Sigma-Aldrich Chemicals (Sigma-Aldrich Corp., St. Louis, MO), Merck Chemicals (Merck KGaA, Darmstadt, Germany), and ABCR (abcr GmbH, Karlsruhe, Germany). THF was dried from benzophenone-sodium. ^1H and ^13C NMR spectra were recorded in CDCl3 or DMSO-d6 on a Varian Mercury 400 MHz spectrometer using tetramethylsilane as the internal standard. Coupling constants were reported as Hertz and all chemical shifts were recorded as δ (ppm). High-resolution mass spectra data (HRMS) were collected using Waters LCT Premier XE Mass Spectrometer operating in ESI(+) or ESI(−) method, also coupled to an AQUITY Ultra Performance Liquid Chromatography system (Waters Corporation) using a UV detector monitoring at 254 nm. Purity for all final compounds was >95%, according to the UPLC-MS method using a water/MeCN solvent gradient containing 0.1% formic acid (1%/90%); flow rate: 0.3 mL/min, column: Aquity BEH C18 column (2.1 × 100 mm^2, 1.7 mm). All microwave irradiation reactions were carried out in a Biotage Initiator + microwave apparatus with Biotage sealed microwave vials. Flash chromatography was performed on a Combiflash Rf Automatic Flash Chromatography System with RediSep silica gel columns (12, 24, and 40 g) (Teledyne-Isco, Lincoln, NE) or Reveleris PREP Purification System (Buchi, New Castle, DE). Preparative chromatography was performed on Buchi US15C18HQ-250/212-C18 silica gel columns with the following devices; Reveleris PREP Purification System or PuriFlash 4250 System (Interchim, Montluçon, France). Melting points of the compounds were determined using the SMP50 automated melting point apparatus (Stuart, Staffordshire, ST15 OSA, U.K.). The in vitro ADME and in vivo mouse PK studies were conducted at Syngene International Ltd., Bangalore, India. General synthetic procedures (Methods 1–9) and experimental data for all intermediate compounds can be found in the Supporting Information.

Data set [8] has as its target CYP2D6 (Homo sapiens, UniProt P10635). Briefly: CYP inhibition. In kind it is in vitro ADME. Particulars: read-out: Inhibition of human CYP 2D6. How it is done: as §2
The target of data set [9] is CYP3A4 (Homo sapiens, UniProt P08684). Briefly: CYP inhibition. The format is in vitro ADME. The conditions noted are these: read-out: Inhibition of human CYP 3A4. As to the method:
as §2

The mark [10] stands for this setting: male, CD-1, plasma, 1 mg/kg, Mouse IV PK, 1 mpk.
The mark [11] stands for this setting: male, CD-1, plasma, 10 mg/kg, Mouse PO PK, 10 mpk.

As usually defined, the AUC is concentration integrated over time. As a reminder, the half-life is how long it takes for the measured level to halve. Read a high half-life as slow loss. In general, Cmax refers to the peak of the concentration-time curve. Broadly, the bioavailability is dose-corrected exposure relative to a reference, in per cent. A word on the logD: it is the decadic logarithm of the distribution of all forms, ionised or not, between an organic phase and buffer at a given pH. Low readings indicate lower lipophilicity, high ones higher lipophilicity. What is called pIC50 is −log10 of the IC50, conventionally taken in molar units. For orientation: inhibition means the percentage by which the read-out fell short of the control.

pIC50: −log10 of the molar value.

CYP2D6, sequence (P10635 whole entry): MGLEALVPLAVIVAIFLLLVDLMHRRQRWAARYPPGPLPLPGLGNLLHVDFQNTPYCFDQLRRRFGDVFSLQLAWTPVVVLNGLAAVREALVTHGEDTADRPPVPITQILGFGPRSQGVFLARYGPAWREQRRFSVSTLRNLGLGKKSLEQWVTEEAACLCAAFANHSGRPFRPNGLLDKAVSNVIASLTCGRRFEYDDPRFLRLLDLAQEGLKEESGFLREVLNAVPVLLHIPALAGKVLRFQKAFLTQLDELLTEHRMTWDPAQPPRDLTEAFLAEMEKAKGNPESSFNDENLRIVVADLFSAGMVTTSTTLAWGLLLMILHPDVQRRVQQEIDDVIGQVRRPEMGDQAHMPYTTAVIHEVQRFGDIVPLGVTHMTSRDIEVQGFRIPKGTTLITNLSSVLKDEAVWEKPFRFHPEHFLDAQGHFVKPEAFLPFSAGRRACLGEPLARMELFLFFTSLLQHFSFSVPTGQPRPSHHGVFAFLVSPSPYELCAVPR
CYP2C9, sequence (P11712 whole entry): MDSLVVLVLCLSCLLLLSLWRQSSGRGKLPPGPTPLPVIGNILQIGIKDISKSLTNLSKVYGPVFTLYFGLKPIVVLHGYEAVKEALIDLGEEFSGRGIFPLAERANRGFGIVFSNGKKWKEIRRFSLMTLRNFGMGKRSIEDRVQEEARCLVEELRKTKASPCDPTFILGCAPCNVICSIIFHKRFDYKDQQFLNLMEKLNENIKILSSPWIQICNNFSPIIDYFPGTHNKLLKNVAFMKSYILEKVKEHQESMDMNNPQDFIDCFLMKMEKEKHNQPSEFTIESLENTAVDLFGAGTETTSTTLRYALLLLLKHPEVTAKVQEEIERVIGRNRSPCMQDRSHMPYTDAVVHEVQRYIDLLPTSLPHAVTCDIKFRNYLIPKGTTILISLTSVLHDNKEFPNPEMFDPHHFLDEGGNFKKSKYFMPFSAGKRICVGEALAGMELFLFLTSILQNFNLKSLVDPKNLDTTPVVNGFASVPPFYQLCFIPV
CYP3A4, sequence (P08684 whole entry): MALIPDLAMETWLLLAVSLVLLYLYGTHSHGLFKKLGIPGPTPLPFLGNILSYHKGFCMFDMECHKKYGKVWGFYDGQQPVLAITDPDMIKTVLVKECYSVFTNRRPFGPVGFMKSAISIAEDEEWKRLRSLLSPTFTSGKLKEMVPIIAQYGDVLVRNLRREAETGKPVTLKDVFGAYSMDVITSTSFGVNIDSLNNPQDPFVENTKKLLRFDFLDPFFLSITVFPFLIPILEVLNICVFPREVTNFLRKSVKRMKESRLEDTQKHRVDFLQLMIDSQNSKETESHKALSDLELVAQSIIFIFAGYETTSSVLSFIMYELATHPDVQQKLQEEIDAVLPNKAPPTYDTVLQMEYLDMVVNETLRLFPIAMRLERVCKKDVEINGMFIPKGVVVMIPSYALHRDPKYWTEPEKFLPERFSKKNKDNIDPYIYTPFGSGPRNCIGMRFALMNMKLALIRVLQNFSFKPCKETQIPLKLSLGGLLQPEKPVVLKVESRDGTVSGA

As to `Cc1ccccc1COc1ccc(-c2ccnn2-c2ccc(Cl)cc2)cc1` [compound 85, 1-(4-Chlorophenyl)-5-(4-((2-methylbenzyl)oxy)phenyl)-1H-pyrazole], the plasma protein-bound in data set [1] turned out to be 99.9%. In addition, in data set [2] (Mouse IV PK, 1 mpk), the Co came to 393 ng/mL. In data set [2] (setting [10]), the AUC turned out to be 436 ng·h/mL, the Vd came to 13.2 L/kg and the half-life was 3.85 h. Further, the clearance in [2] (male, CD-1, plasma, 1 mg/kg, Mouse IV PK, 1 mpk, read-out: Clp (converted)) is 38.8 mL/min/kg. In data set [2] (setting [11]), this compound gave an AUC of 192 ng·h/mL, a Cmax of 19.3 ng/mL, a bioavailability of 5% and a half-life of 6.64 h. In addition, the logD in [3] worked out at 6.64. The Solubility result in data set [4] was “sparingly soluble”. Also, the “Metabolic stability, remaining” value in [5] is 55%. For the same compound, the pIC50 in data set [6] is 4.84 to 6.15. Moreover, the inhibition at 10 µM in data set [7] worked out at 7.3%. In addition, in data set [8], the inhibition at 10 µM was determined as 22.2%. Moreover, in [9], the inhibition at 10 µM was 0%.
